According to patent US20090123501A1, “INHIBITION OF THE SH2-DOMAIN CONTAINING PROTEIN TYR-PHOSPHATASE, SHP-1, TO ENHANCE VACCINES” (Baylor College of Medicine, priority 2007, published 2009):

Experiments:
[1] = test system: total splenocytes; test: T cell subsets in total splenocytes 7 days after DC vaccination, flow cytometry; assay type: in vivo, C57BL/6 mice; details: by viral treatment, peptides pooled
Description: To determine the effect of SHP-1 inhibition on the initiation of T cell responses, BMDCs were cultured and CD11c^+ MACS purified as described above. […] Following peptide loading DCs were left untreated or transduced with one of 3 different adenoviral vectors: 1) Ad5-SHP-1-shRNA; 2) Ad5-scrambled-shRNA; or 3) Ad5-CMV-empty, an adenovirus carrying a CMV promoter expression vector but no insert. […] Using all combinations of peptide and virus treatment yielded 9 experimental vaccines and one no vaccine control. Vaccines (2×10^6 DCs) were injected i.p. into wt C57BL/6 mice. Seven days following vaccination mice were sacrificed and total splenocytes were analyzed by multi-color flow cytometry for the expression of several T cell subsets. CD3^+ CD8^+IFNγ^+ cells were characterized as CTL effectors, CD3^+ CD4^+IFNγ^+ cells were characterized as Th1 helper T cells, and CD4^+ FOXP3^+ cells were characterized as Treg cells. Flow cytometry data were analyzed by one-way analysis of variance (ANOVA) and Tukey-Kramer HSD multiple comparisons test for percentage of cells falling within each population following treatment. Cells were stained with anti-CD3, anti-CD8 and anti IFNγ to differentiate CD8^+ effectors and CD4^+ Th1 T cell skewing or anti-CD4 and anti-FOXP3 to determine Tregs. To determine if there was a peptide specific effects between the 3 different tumor antigens, viral treatments were pooled for each peptide exposure. Data represent the averages 6 mice per peptide treatment group and 2 mice in the no treatment control group. No significant differences were seen between peptides in the induction of Tregs or CD8^+ effector cells.
(§1) Following peptide loading DCs were left untreated or transduced with one of 3 different adenoviral vectors: 1) Ad5-SHP-1-shRNA; 2) Ad5-scrambled-shRNA; or 3) Ad5-CMV-empty, an adenovirus carrying a CMV promoter expression vector but no insert. Vaccines were injected i.p. into wt C57BL/6 mice and T cell skewing analyzed 7 days later by flow cytometry from total splenocytes. Cells were stained with anti-CD3, anti-CD8 and anti IFNγ for effector and Th1 cells or anti-CD4 and anti-FOXP3 for Tregs. For the peptide specific analysis viral treatments were pooled for each peptide exposure. Data represent the averages 6 mice per peptide treatment and two mice in the no treatment control group. The green diamonds represent the mean and 95% confidence interval for each group from the ANOVA. The black line is the mean of means for the study and red asterisk (*) indicates significant differences (p<0.05 by Tukey-Kramer HSD multiple comparisons test).
as §1, with “the SHP-1” for “the peptide”, “each viral treatment.” for “each peptide exposure.”, “and 2” for “and two”, “ANOVA. […]” for “ANOVA. The black line is the mean of means for the study and red asterisk (*) indicates significant differences (p<0.05 by Tukey-Kramer HSD multiple comparisons test).”

[2] = test system: Akt; test: LPS stimulated Akt signaling in BMDCs, western blot; assay type: cell-based, C57BL/6 mice; details: CD11c positive BMDCs
Description: DC survival has been linked with activation of Akt/protein kinase B (PKB) family proteins, major effectors of phosphatidylinositol 3-kinase (PI3K) family members. LPS stimulated Akt signaling BMDCs was examined to determine if SHP-1 mediated survival might be working through this mechanism. MACS sorted for CD11c positive BMDCs were infected with either Ad5-SHP-1-shRNA or Ad5-scrambled-shRNA or left untreated. Cells (10^7) per group were treated with 1 μg/mL LPS for the times indicated or left untreated. Lysates were analyzed by western blot for phosphorylated Akt. […] This observation provides a mechanism for the increased survival seen when SHP-1 signaling was inhibited, in certain embodiments (FIG. 8). LPS stimulation also appears to enhance the total level of SHP-1 protein in DCs as shown by the SHP-1 blot for cells treated with Ad5-scrambled-shRNA.

[3] = 2×10^6 DCs i.p., day 7, vs no vaccine control

“CACCGGAGCATGACACAGCAGAATACGAATATTCTGCTGTGTCATGCTCC (chemistry not given here) [Ad5-SHP-1-shRNA]” was tested, and the “proportion of CD4+ Th1 skewed T cells (CD3+CD4+IFNγ+)” value [1, 3] was “significantly higher proportion”, the “proportion of CD8+ effector cells (CD3+CD8+IFNγ+)” value [1, 3] was “significantly higher proportion” and the “percentage of Tregs (CD4+FOXP3+)” value ([1]; day 7, vs empty viral control) was “significantly decreased the percentage of Tregs”. For the same sequence, the “steady state expression of total Akt protein” value [2] was “enhanced the steady state expression of total Akt protein” and the “LPS mediated Akt phosphorylation” value ([2]; 1 μg/mL LPS) was “enhanced LPS mediated Akt phosphorylation”.
